# Assay results reported in US11076597B2, “High stress resistant plant growth regulator and preparation method and use thereof” (SHANGHAI INSTITUTES FOR BIOLOGICAL SCIENCES, CHINESE …, priority 2015, dated 2021).
# “Also recorded” adds a separate entry of the source.
# How the values were obtained:
# rice OsPYL2 protein = target: T1, rice OsPYL2 protein (Oryza sativa subsp. japonica, UniProt Q5Z8S0); test: AlphaScreen assay, rice OsPYL2 with Arabidopsis AtHAB1; type: biochemical; settings: fraction of the EC50 of ABA; FIG. 13
# T1 construct: made in house; host or cells: E. coli BL21 (DE3)
# T1 sequence (Q5Z8S0 1-207): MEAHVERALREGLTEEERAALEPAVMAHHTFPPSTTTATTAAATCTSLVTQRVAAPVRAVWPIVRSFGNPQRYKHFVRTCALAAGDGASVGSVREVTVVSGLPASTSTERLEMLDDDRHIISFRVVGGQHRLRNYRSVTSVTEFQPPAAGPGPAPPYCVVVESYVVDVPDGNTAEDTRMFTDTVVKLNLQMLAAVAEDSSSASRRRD
# T1 sequence (Q9CAJ0 172-511 partner limits assumed): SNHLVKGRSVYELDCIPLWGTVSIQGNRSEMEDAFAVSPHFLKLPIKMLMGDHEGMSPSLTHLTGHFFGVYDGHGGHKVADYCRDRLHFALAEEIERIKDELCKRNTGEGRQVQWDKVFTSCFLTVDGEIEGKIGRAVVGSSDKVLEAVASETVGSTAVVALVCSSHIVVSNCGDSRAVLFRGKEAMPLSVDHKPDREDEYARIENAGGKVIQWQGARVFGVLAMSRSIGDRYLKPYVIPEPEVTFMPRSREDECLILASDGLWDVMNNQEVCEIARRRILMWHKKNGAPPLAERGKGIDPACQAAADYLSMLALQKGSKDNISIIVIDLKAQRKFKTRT
# Procedure: The AlphaScreen kit (available from Perkin Elmer) was used, and the method was as follows: a 10× buffer (50 mM MOPS, pH 7.4, 50 mM NaF, 50 mM CHAPS, 0.1 mg/ml bovine serum albumin) diluted at 1:10, each of 100 nM HAB1 with Biotin tag sequence and PYR1/PYL1/PYL2/PYL7/GmPYL6/OsPYL2 protein with dual tags of 6×His and SUMO sequences, corresponding concentrations of (+)-ABA/0224/0304/0706/0708/0713/0715/0428/NC0F4, and 5 μg/ml donor beads and acceptor beads (available from Perkin Elmer) were contained in 150 μl of experimental system. After incubating for 1.5 hours at room temperature in the dark, it was placed into an Envision Plate Reader (available from Perkin Elmer) under the programmed AlphaScreen procedure for readings.
# corn = test: Soil drought experiment, corn; type: in vivo; settings: 50 μM sprayed once a day for two days; 4 days of drought; FIG. 14b
# Procedure: Soil drought experiments used for compound 0428 on soybean and maize were similar to that used for compound 0224 on soybeans, with only one plant contained in each pot. All soybean plants were long-day cultured at 26° C. Watering was stopped after the plant had three leaves in each of three groups and the plants with consistent growth were selected for drought treatment. As for corn, watering was stopped during the small bell-mouthed period for drought treatment. A solution containing 0.05% tween-20 and 50 μM (+)-0428 or 0.05% Tween-20 and 0.05% DMSO (control) was sprayed once on leaf surface on the first day and the second day of the drought, respectively, with a spray amount of 4 ml/pot. Meanwhile the pot position was also changed. The soybeans were re-watered 9 days after the drought, the corn was re-watered 4 days after the drought, and the photos were taken the next day.
# In another group of experiments, soil drought experiments were performed on soybeans with three leaves in three groups or corn plants during the small trumpet period of the same size.
# cotton = test: Soil drought experiment, cotton; type: in vivo; settings: 20 μM sprayed once every 3 days; re-watering after 6 days of drought; FIG. 9
# Procedure: Soybean, cotton and wheat for leaf transpiration experiments were used simultaneously for soil drought experiments, each pot was filled with the same weight of soil to reduce experimental error. All the soybean plants were subjected to a long-day culture at 26° C. 14 days after sowing, watering was stopped and the plants with the consistent growth condition were selected for drought treatment. At the start of the drought, a solution containing 0.1% Tween-20 and 20 μM (+)-ABA/0224/0304 or 0.1% Tween-20 and 0.05% DMSO (control) was sprayed onto the leaf surface once with a spray amount of 4 ml solution/pot. Meanwhile, the position of the pot was changed and re-watered 6 days after the drought, and the photos were taken 1 day after re-watering. The drought experiment of cotton was similar to that of soybeans, watering was stopped 25 days after sowing, the plants with the consistent growth condition were selected for drought treatment. At the start of the drought, a solution containing 0.1% Tween-20 and 20 μM (+)-ABA/0224 or 0.1% Tween-20 and 0.05% DMSO (control) was sprayed onto the leaf surface once with a spray amount of 4 ml solution/pot, and then sprayed once every 3 days. Meanwhile, the position of the pot was changed and re-watered 6 days after the drought, and the photos were taken before re-watering and 1 day after re-watering. […]
# [1] = system: PYL receptor triple mutant (pyr1;pyl1;pyl4) seeds; test: Seed germination, PYL receptor triple mutant; type: in vivo, Arabidopsis thaliana; settings: 1 μM in 1/2 MS solid medium, 6 days after sowing; FIG. 3
# Procedure: Take the compounds 0428 and 0224 of the present invention as examples. The seeds of Arabidopsis thaliana Col-0 ecotype and PYL receptor triple mutant (pyr1;pyl1;pyl4) were sterilized with NaClO and placed at 4° C. for 3 days of the vernalization, and then sown in ½ MS solid medium containing 1 μM (+)-ABA/0224 compound or 0.05% DMSO (control) or in ½ MS solid medium containing 2 μM (+)-ABA/compound 0428 of the present invention or 0.05% DMSO (control). Two lines of plant were sown simultaneously on each medium of 6 cm diameter, with 15-20 seeds sown for each line and 4 replicates for each compound. Culture medium was placed at 22° C. with long-day culture. The seeds germinated on a solid medium containing 1 μM (+)-ABA/0224 compound were photographed 6 days after sowing, and seeds germinated on solid medium containing 2 μM (+)-ABA/0428 compound were photographed 9 days after sowing.
EC50 value for rice OsPYL2 as fraction of that of ABA (rice OsPYL2 protein),Compound,growth after drought and re-watering (corn),growth after drought and re-watering (cotton),inhibition of seed germination of pyr1;pyl1;pyl4 triple mutant [1]
⅓,CCCN1C(=O)OCc2cc(NS(=O)(=O)Cc3c(F)c(F)c(C)c(F)c3F)ccc21 [Compound 0428],significantly better growth after re-watering than that in the DMSO-sprayed control group,–,–
–,CCCN1C(=O)OC(C)c2cc(NS(=O)(=O)Cc3c(F)c(F)c(C)c(F)c3F)ccc21 (stereo not shown) [Compound 0224],–,significantly better than that of the control group (DMSO) or that of the cotton treated with the same concentration of ABA; also recorded: significantly better growth after re-watering than that in the DMSO-sprayed control group and the plants sprayed with the same concentration of ABA,significantly reduced; also recorded: could not inhibit the seed germination of PYR/PYL triple mutant
